Test results published in ChEMBL document CHEMBL5729305, “Compounds, salts thereof and methods for treatment of diseases” (2022).

Biological target: 5-hydroxytryptamine receptor 2A (Homo sapiens, UniProt P28223)
Experiment: Receptor Selection and Amplification (R-SAT) Assays: R-SAT's were generally performed with 50 ng/well of receptor and 20 ng/well of β-galactosidase plasmid DNA. All receptor constructs used were in the pSI mammalian expression vector (Promega Inc) as described previously. The 5-HT2A receptor gene was amplified by nested PCR (polymerase chain reaction) from brain cDNA using the …
Assay type: cell-based

5-hydroxytryptamine receptor 2A, sequence (P28223 whole entry): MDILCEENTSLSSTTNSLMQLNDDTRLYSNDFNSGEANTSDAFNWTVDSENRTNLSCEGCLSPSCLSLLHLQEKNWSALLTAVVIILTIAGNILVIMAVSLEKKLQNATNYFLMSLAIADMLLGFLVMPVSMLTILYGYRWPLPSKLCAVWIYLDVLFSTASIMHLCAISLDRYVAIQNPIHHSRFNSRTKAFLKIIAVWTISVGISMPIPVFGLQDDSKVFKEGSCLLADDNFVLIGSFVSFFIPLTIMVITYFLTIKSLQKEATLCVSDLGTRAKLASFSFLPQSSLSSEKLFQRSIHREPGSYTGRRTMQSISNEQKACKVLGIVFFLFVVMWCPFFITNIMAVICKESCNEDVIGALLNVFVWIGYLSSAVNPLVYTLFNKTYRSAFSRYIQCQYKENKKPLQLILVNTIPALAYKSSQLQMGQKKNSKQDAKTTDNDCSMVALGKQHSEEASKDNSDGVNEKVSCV

Ki: 10 nM
Compound: CC(C)Oc1ccc(CC(=O)N(Cc2ccc(F)cc2F)[C@@H]2CCN(C)C[C@@H]2F)cc1 (mixture of isomers)
